# According to article PMC12503911, “Cytotoxicity of Atropisomeric [1,1′‐Binaphthalene]‐2,2′‐Diamines (BINAM) and Analogs in Human Cancer Cells: Enantioselectivity, Structure–Activity Relationships, and Mechanism” (Chemmedchem, 2025):
# Where two headings read alike, the source gives them in different places.
# How the values were obtained:
# Test in all cases: biochemical
# Design in all cases: 33PanQinase radiometric kinase activity assay, residual activity in % of control, contract lab Reaction Biology
# Settings in all cases: mean of intraexperimental duplicates, n = 1
# [1] = target: CDK1/CycB1 (Homo sapiens, UniProt P06493)
# Sequence of CDK1/CycB1 (P06493 whole entry): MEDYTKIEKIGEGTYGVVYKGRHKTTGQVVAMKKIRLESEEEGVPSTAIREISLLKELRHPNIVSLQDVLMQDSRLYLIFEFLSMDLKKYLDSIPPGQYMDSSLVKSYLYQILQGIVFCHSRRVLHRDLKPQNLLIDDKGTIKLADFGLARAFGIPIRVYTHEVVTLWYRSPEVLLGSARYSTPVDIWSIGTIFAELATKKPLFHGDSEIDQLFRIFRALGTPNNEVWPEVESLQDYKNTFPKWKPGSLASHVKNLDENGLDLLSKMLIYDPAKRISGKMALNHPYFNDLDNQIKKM
# Sequence of CDK1/CycB1 (P14635 whole entry partner): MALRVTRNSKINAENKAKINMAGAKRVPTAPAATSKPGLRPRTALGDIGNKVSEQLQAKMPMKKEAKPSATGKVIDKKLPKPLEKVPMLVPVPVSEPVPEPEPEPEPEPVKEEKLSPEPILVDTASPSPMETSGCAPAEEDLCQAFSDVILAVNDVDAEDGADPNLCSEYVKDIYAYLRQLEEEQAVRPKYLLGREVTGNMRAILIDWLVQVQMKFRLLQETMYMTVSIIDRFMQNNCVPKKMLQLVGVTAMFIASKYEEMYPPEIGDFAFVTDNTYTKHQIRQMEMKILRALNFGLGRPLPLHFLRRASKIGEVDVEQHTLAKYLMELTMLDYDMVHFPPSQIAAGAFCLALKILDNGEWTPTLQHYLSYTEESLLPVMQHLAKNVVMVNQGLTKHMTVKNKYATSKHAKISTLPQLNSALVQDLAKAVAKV
# Protocol: (§1) Kinase Screening was performed at Reaction Biology (Freiburg, Germany) by using the ^33PanQinase Assay.^[ [90] ^] Based on this knowledge, we commissioned a kinase screening by the firm Reaction Biology, targeting those kinases whose inhibition has shown an indirect effect on microtubules. In our selection, we included additional kinases that are known to be involved in centrosome amplification (PLK4^[ [82] ^]), centrosome clustering (CDK1/2,^[ [83] ^] PLK1^[ [84] ^]), spindle multipolarity (SRC^[ [85] ^]), microtubule dynamics (AKT1^[ [86] ^]), and LIMK1/2 activation (ROCK1^[ [87] ^]) or are crucial for the mitosis (BUB1B, NEK2/9, WEE1^[ [88] ^]). Nonetheless, 1(R) and 1(S) at 10 µM had almost no inhibitory effects on any of the chosen kinases (Table 4 ). Only Aurora A (mean residual activity for 1(R): 86%, 1(S): 98%) and ASK1 (mean residual activity for 1(R): 90%, 1(S): 117%) were slightly enantioselectively impacted. However, we theorize that those marginal inhibitions are not explanatory for the antiproliferative and morphological effects of 1(R) on cancer cells.
# [2] = target: CDK2/CycA2 (Homo sapiens, UniProt P24941)
# Protocol: as §1
# [3] = target: T1, CHK1 (Homo sapiens, UniProt O14757)
# T1 construct: gene CHEK1
# T1 sequence (O14757 1-476): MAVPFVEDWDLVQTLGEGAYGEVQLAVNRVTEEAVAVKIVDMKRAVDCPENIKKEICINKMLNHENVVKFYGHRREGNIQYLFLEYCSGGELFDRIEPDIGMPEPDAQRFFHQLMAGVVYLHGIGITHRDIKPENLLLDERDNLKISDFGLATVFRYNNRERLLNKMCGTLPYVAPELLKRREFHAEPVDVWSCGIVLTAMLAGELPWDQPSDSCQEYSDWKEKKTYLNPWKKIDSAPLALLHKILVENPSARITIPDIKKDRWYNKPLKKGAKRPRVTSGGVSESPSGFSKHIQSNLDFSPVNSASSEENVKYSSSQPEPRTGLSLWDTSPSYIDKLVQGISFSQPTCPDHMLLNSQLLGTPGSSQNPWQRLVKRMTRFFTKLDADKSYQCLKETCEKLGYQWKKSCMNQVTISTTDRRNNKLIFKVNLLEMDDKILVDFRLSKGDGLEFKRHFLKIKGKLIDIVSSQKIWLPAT
# Protocol: as §1
# [4] = target: T2, Mps1/TTK (Homo sapiens, UniProt P33981)
# T2 sequence (P33981 1-857): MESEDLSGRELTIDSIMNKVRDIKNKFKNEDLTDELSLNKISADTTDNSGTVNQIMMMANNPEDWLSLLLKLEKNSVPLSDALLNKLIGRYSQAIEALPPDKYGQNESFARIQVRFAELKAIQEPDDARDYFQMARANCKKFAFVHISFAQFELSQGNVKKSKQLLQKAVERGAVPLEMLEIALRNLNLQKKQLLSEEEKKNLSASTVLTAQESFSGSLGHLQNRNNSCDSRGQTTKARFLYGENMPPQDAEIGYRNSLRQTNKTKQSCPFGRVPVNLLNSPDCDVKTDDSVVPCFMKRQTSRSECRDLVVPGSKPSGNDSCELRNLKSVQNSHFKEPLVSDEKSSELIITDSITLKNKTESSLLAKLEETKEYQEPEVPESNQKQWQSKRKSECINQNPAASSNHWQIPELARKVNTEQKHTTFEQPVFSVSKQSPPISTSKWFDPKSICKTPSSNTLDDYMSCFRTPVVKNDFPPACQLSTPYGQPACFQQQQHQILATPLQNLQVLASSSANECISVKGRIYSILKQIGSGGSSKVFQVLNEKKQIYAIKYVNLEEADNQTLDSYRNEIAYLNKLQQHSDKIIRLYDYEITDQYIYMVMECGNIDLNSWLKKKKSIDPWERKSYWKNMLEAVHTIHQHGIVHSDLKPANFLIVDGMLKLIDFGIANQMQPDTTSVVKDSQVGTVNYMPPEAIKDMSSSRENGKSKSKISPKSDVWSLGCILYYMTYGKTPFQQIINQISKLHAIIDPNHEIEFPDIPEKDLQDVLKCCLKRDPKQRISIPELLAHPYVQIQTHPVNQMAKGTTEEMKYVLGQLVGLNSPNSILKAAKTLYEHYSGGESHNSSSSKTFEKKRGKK
# Protocol: as §1
# [5] = target: T3, NEK2 (Homo sapiens, UniProt P51955)
# T3 sequence (P51955 1-445): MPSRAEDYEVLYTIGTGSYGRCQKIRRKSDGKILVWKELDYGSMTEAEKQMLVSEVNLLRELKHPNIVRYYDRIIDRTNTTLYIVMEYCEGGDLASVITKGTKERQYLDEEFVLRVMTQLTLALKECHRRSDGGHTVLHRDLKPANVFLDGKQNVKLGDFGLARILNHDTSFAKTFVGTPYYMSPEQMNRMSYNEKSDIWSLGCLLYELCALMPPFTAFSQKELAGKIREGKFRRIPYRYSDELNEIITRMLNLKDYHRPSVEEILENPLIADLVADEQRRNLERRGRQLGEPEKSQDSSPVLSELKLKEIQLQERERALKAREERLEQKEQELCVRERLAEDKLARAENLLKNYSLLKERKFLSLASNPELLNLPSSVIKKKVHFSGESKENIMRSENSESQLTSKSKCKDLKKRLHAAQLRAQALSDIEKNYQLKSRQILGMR
# Protocol: as §1
# [6] = target: ROCK1 (Homo sapiens, UniProt Q13464)
# Sequence of ROCK1 (Q13464 whole entry): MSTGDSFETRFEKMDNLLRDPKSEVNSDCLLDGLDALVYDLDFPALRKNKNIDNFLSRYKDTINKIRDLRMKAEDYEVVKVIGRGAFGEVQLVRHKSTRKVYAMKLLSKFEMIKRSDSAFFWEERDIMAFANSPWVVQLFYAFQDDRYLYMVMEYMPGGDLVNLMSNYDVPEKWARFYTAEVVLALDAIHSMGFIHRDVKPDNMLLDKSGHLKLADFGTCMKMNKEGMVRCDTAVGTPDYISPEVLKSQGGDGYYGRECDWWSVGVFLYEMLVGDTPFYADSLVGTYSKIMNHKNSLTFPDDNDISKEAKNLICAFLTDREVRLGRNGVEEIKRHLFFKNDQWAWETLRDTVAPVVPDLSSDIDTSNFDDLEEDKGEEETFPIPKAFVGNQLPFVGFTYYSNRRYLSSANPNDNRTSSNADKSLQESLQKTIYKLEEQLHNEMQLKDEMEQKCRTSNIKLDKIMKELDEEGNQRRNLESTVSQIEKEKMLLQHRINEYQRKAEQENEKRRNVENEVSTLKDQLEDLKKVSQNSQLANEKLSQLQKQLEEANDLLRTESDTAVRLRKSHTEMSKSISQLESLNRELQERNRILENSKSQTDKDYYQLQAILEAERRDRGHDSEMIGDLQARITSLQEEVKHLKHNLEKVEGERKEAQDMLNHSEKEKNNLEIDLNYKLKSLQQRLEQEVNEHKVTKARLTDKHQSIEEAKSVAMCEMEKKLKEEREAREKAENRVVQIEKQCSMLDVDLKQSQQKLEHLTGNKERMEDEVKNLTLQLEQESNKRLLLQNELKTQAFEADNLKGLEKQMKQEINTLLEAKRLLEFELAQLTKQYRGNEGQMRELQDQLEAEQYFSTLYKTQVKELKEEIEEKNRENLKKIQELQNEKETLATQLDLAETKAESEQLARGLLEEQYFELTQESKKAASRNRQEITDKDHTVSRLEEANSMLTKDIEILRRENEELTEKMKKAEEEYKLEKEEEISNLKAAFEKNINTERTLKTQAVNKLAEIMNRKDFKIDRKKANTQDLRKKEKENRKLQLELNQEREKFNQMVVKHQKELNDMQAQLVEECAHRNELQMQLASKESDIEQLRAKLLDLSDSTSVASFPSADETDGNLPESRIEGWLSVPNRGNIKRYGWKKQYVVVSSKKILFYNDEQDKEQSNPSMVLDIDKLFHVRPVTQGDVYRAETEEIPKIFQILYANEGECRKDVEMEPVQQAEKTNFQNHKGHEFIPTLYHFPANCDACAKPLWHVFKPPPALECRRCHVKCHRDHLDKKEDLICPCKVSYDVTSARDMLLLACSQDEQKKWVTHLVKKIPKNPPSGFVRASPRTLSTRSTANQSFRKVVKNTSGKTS
# Protocol: as §1
# [7] = read-out: Residual activities [% of control] / 1(R) 10 µM
# [8] = read-out: Residual activities [% of control] / 1(S) 10 µM
"remaining activity at 10 µM [1, 7]","remaining activity at 10 µM [2, 7]","remaining activity at 10 µM [3, 7]","remaining activity at 10 µM [4, 7]","remaining activity at 10 µM [5, 7]","remaining activity at 10 µM [6, 7]","remaining activity at 10 µM [1, 8]","remaining activity at 10 µM [2, 8]","remaining activity at 10 µM [3, 8]","remaining activity at 10 µM [4, 8]","remaining activity at 10 µM [5, 8]","remaining activity at 10 µM [6, 8]",Structure (SMILES)
101%,95%,94%,98%,106%,100%,,,,,,,"Nc1ccc2ccccc2c1-c1c(N)ccc2ccccc12 [1(R), (R)‐[1,1′‐binaphthalene]‐2,2′‐diamine]"
,,,,,,100%,92%,95%,97%,96%,97%,"Nc1ccc2ccccc2c1-c1c(N)ccc2ccccc12 [1(S), S‐BINAM]"
